Source: patent publication US10633375B2, “Oxopicolinamide derivative, preparation method therefor and pharmaceutical use thereof” (Jiangsu Hengrui Medicine Co., Ltd., priority 2016, dated 2020)
Where “and” joins values, the source holds several entries; their conditions need not be identical. Equal entries are not always repeated.

Assays:
[1] = Pharmacokinetics assay in rats after intragastrical administration; format: in vivo, Sprague-Dawley (SD) rats; conditions: both sexes, Sprague-Dawley, rat, plasma, po, SD rats, intragastric, 2 mg/kg; for Vd/F: read-out: Apparent Distribution Volume Vz/F; for AUC: read-out: Area Under Curve AUC; for CL/F: read-out: Clearance CLz/F; for half-life: read-out: Half-Life T½ (converted); for MRT: read-out: Mean Residence Time MRT; for Cmax: read-out: Plasma Concentration Cmax
From the text: Test Example 3. Pharmacokinetics Assay of the Compounds of the Present Invention
Rats were used as test animals. […] The pharmacokinetic behavior of the compounds of the present invention was studied and evaluated in rats.
56 healthy adult Sprague-Dawley (SD) rats, half male and half female, were purchased from SINO-BRITSH SIPPR/BK LAB. ANIMAL LTD., CO, with License No.: SCXK (Shanghai) 2008-0016.
2.3 Preparation of the Test Compounds
A certain amount of the test compound was weighed, and added with 5% by volume of DMSO, 5% by volume of Tween 80 and 90% normal saline to prepare a 0.2 mg/mL colorless, clear and transparent solution.
After an overnight fast, SD rats were intragastrically administered at a dose of 2.0 mg/kg and an administration volume of 10.0 mL/kg.
Blood (0.2 mL) was taken from the orbital sinus before administration and at 0.5, 1.0, 2.0, 4.0, 6.0, 8.0, 11.0 and 24.0 hours after administration. The samples were stored in heparin anticoagulation tubes, and centrifuged for 10 minutes at 3500 rpm at 4° C. to separate the blood plasma. The plasma samples were stored at −20° C. The rats were fed 2 hours after administration.
(§1) The content of the test compound in the plasma of rats after intragastric administration of different concentrations of the drug was determined: 25 μL of rat plasma at each time after administration was taken and added with 30 μL (100 ng/mL) of the internal standard solution of camptothecin and 200 μL of acetonitrile, shaken vertically for 5 minutes, and centrifuged for 10 minutes (4000 rpm). 3.0 μL of the supernatant was taken from the plasma samples for LC/MS/MS analysis.
4. Results of Pharmacokinetic Parameters
Pharmacokinetic parameters of the compounds of the present invention in rats are shown below.

[2] = Pharmacokinetics assay in cynomolgus monkeys; format: in vivo; conditions: male, cynomolgus monkey, plasma, po, intragastric, 15 mg/kg; for Vd/F: read-out: Apparent Distribution Volume Vz/F; for AUC: read-out: Area Under Curve AUC; for CL/F: read-out: Clearance CLz/F; for half-life: read-out: Half-Life T½ (converted); for MRT: read-out: Mean Residence Time MRT; for Cmax: read-out: Plasma Concentration Cmax
From the text: (§2) Test Example 4: Determination of APTT Value and Pharmacokinetic Assay in Cynomolgus Monkey
Cynomolgus monkeys were used as test animals. […] The pharmacokinetic behavior of the compounds of the present invention was studied and evaluated in the cynomolgus monkeys.
(§3) Six male cynomolgus monkeys (101, 102, 103, 201, 202 and 203) were purchased from Guangxi Xiongsen Primate Experimental Animal Breeding Development Co., Ltd.
(§4) Compounds of Example 5 and Example 108.
(§5) 4. Preparation of the Test Compounds
(§6) A certain amount of the test compound was weighed, and added with 2% by volume of DMSO, 78% by volume of PEG400 and 20% CMC-Na (0.5%) to prepare a 3.0 mg/mL colorless, clear and transparent solution.
(§7) After an overnight fast, cynomolgus monkeys were intragastrically administered at a dose of 15.0 mg/kg and an administration volume of 5.0 mL/kg.
7. Test Protocol of Pharmacokinetics Assay in Cynomolgus Monkeys
1.0 mL of blood was taken from the forelimb vein before administration and at 0.25, 0.5, 1, 2, 4, 6, 8, 12 and 24 hours after administration. The samples were stored in heparin anticoagulation tubes, and centrifuged for 10 minutes at 3500 rpm to separate the blood plasma. The plasma samples were stored at −80° C. The […] were fed 2 hours after administration.
as §1, with “of cynomolgus monkeys” for “of rats”, “of cynomolgus monkey” for “of rat”, “and 225” for “and 200”, “rpm). 1.0” for “rpm). 3.0”
7.2. Results of Pharmacokinetic Parameters in Cynomolgus Monkeys
Pharmacokinetic parameters of the compounds of the present invention in cynomolgus monkeys are shown below.

[3] = Determination of APTT value in cynomolgus monkeys; format: in vivo; conditions: cynomolgus monkey, individual animals; for APTT (sec) 1 hour / APTT (sec) 2 hours / APTT (sec) 4 hours / APTT (sec) 8 hours / APTT (sec) 12 hours: 15.0 mg/kg intragastric; for APTT (sec) 1 hour: 1 hour after administration; for APTT (sec) 2 hours: 2 hours after administration; for APTT (sec) 4 hours: 4 hours after administration; for APTT (sec) 8 hours: 8 hours after administration; for APTT (sec) 12 hours: 12 hours after administration; for APTT (sec) Before Administration: baseline before 15.0 mg/kg intragastric dose
Protocol: as §2, §3, §4, §5, §6, §7
6. Test Protocol for Determination of APTT Value in Cynomolgus Monkeys
6.1 Experimental Materials
Reagents: APTT reagent (Activated partial thromboplastin time assay kit, SIEMENS, Art. No. B4218-1), PEG-400 and CMC-Na;
Instrument: Coagulation instrument (SYSMEX, CA-500).
6.2 Collection and Processing of APTT Plasma Sample
Blood was taken before administration and at 1 hour, 2 hours, 4 hours, 8 hours and 12 hours after administration. About 1.8 mL of blood was taken through femoral vein puncture in each animal for each time. Anticoagulated sodium citrate was added. After the blood sample was collected, it was placed in a pre-labeled centrifuge tube, and the plasma was separated by centrifugation (centrifugation conditions: 3500 rpm, 10 minutes, 2-8° C.). The plasma was stored in a −80° C. refrigerator for APTT assay.
6.3 APTT Assay Results in Cynomolgus Monkeys

human blood = test: In vitro anticoagulant effect on human blood (APTT, CT2); conditions: Table 2; concentration corresponding to 2 times the APTT of the blank control, human plasma
In short: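 Citrated human plasma (3.8% sodium citrate, 1:9) spiked with compound serially diluted in 100% DMSO (0.3–3000 μM dilution series; DMSO blank) and APTT measured on a coagulation analyser. CT2 is the compound concentration doubling blank APTT, from curve fitting.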

Compound	Vd/F [1] [L/kg]	AUC [1] [ng·h/mL]	CL/F [1] [mL/min/kg]	half-life [1] [h]	MRT [1] [h]	Cmax [1] [ng/mL]	Vd/F [2] [L/kg]	AUC [2] [ng·h/mL]	CL/F [2] [mL/min/kg]	half-life [2] [h]	MRT [2] [h]	Cmax [2] [ng/mL]	APTT (sec) 1 hour [3]	APTT (sec) 2 hours [3]	APTT (sec) 4 hours [3]	APTT (sec) 8 hours [3]	APTT (sec) 12 hours [3]	APTT (sec) Before Administration [3]	CT2, concentration doubling APTT (human blood) [µM]
COc1cn([C@@H](Cc2ccccc2)C(=O)Nc2ccc(C(=O)O)cc2)c(=O)cc1-c1cc(Cl)ccc1C(C)=O [Example 5, (S)-4-(2-(4-(2-acetyl-5-chlorophenyl)-5-methoxy-2-oxopyridin-1(2H)-yl)-3-phenylpropanamido)benzoic acid]	4.98 ± 0.291	518 ± 63	65.1 ± 8.1	0.89 ± 0.08	6.64 ± 1.77	244 ± 77	30.4 ± 12.6	4950 ± 2880	62 ± 32	5.86 ± 1.1	9.63 ± 0.78	688 ± 560	36.8 s and 25.9 s	33.3 s and 31.4 s and 27.2 s	28.3 s and 26.1 s and 22.2 s	27.3 s and 32.5 s and 24.8 s	28.6 s and 23.8 s and 23.9 s	17.2 s and 17.3 s and 19.1 s	2.0
CCC(=O)c1ccc(Cl)cc1-c1cc(=O)n([C@@H](CCOC(C)(C)C)C(=O)Nc2ccc(C(=O)O)cc2)cc1OC [Example 108, (S)-4-(4-(tert-butoxy)-2-(4-(5-chloro-2-propionylphenyl)-5-methoxy-2-oxopyridin-1(2H)-yl)butanamido)benzoic acid]	44.4 ± 3.45	452 ± 44	74.3 ± 6.9	6.98 ± 1.22	7.33 ± 0.48	105 ± 23	59.1 ± 26.2	2700 ± 1340	120 ± 83	6.32 ± 1.47	8.81 ± 3.65	295 ± 102	26.3 s and 31.2 s and 31.9 s	27.5 s and 27.1 s and 28.5 s	28.7 s and 24.1 s and 28.6 s	26.9 s and 20.3 s and 26.3 s	27.3 s and 19 s and 21.5 s	17.5 s and 18.5 s and 17.6 s	1.4
